Bridge positions count the residues as written; N and C are the ends. Square brackets hold non-standard residues; d marks the D form. Peptide text beside a SMILES is read from it. Lys(iPr) = CC(C)NCCCC[C@H](N)C(=O)O; Orn(iPr) = CC(C)NCCC[C@H](N)C(=O)O; Dab = NCC[C@H](N)C(=O)O
What was measured:
[1] = Drug loading calculations via maintenance dose rate (rate of infusion); settings: CLiv-mouse values scaled by 0.127 (GFR human/GFR mouse)
Experimental: The drug load for an implant comprising a peptide of the invention was calculated following the basic principles in pharmacokinetics (see also J. Gabrielsson, D. Weiner, "Pharmacokinetics and Pharmaco-dynamics Data Analysis: Concepts and Applications", 4th edition, Swedish Pharmaceutical Press, Stockholm, Sweden, 2006) whereby the maintainance dose rate (rate of infusion, Rin) can be defined as the rate at which a drug is to be administered to reach a steady state of a certain dose in the plasma. The maintainance dose rate can be expressed using the correlation Rin [g/(h*kg)] = CLiv[L/(h*kg)] x Css,eff [g/L], wherein CLiv is the clearance (i.v. - admin.) and Css,eff the effective concentration of the drug in the plasma at steady state considering an efficacy margin A: Css,eff [g/L] = A x (IC50/fu) x MW [(mol/L)*(g/mol)]. Therefore, the total amount of a drug loaded into an implant providing for a constant effective concentration of that drug in the plasma for a certain period of time in a subject of a certain body weight can be calculated by applying the following correlation: Drugload [g/subject] = Rin [g/(h*kg)] x duration[h] x BW [kg/subject]. [formula]
Further pre-conditions are an efficacy margin of A = 3, a study duration of 672 h (28 days) and a body weight of a human suject of 70 kg. The glomerular filtration rate (GFR) which mainly influences the clearance of the peptides is highly dependent on the species. In general, the GFR of humans is averaged to be 107 mL/(h*kg) compared to the GFR of mouse being 840 mL/(h*kg). Therefore, the CLiv-mouse values indicated in Table 5b were allometrically scaled by 107 mL/(h*kg)/840 mL/(h*kg) = 0.127 before employed in the above described correlations.

[2] = Plasma stability, human plasma; type: in vitro ADME; settings: human plasma, 37° C, last time point 1440 min
Experimental: (§1) The stability of the peptides in human and mouse plasma was determined by applying the following method: 346.5 µL/deep well of freshly thawed human plasma (Basler Blutspende-dienst) and mouse plasma (Harlan Sera-Lab, UK), respectively, were spiked with 3.5 µL/well of compound dissolved in DMSO/H2O (90/10 [v/v], 1 mM, triplicate) and incubated at 37° C. At t = 0, 15, 30, 60, 120, 240 and 1440 min aliquots of 50 µL were transferred to filtration plate wells containing 150 µL/well of 2% formic acid in acetonitrile. Following shaking for 2 min the occurred suspensions were filtrated by vacuum. 100 µL of each filtrate were transferred to a propylene microtiter plate and dried under N2. The residual solids were reconstituted by adding 100 µL/well of water/acetonitrile, 95/5 (v/v) + 0.2% formic acid and analyzed by LC/MS as follows: Column: Waters, XBridge C18, mobile phases: (A) water + 0.1% formic acid and (B) acetonitrile/water, 95/5 (v/v) + 0.1% formic acid, gradient: 5%-100% (B) in 1.8 minutes, electrospray ionization, MRM detection (triple quadrupole). The peak areas were determined and triplicate values are averaged. The stability is expressed in percent of the initial value at t = 0. (tx/t0 x 100). By using the TREND function of EXCEL (Microsoft Office 2003) T1/2 were determined.

[3] = Plasma stability, mouse plasma; type: in vitro ADME; settings: mouse plasma, 37° C, last time point 1440 min
Experimental: as §1

[4] = target: T1, CXCR4 receptor (Homo sapiens, UniProt P61073); assay: Chemotactic assay (cell migration assay): response of Namalwa cells to an SDF-1 gradient; type: cell-based
T1 construct: Namalwa cells (CXCR4 natively expressing non-adherent cells, ATCC CRL-1432); host or cells: Namalwa cells
Experimental: Namalwa cells (CXCR4 natively expressing non-adherent cells, ATCC CRL-1432) were cultured in RPMI1640 plus 10% FBS, and pen/strept. HELA cells were maintained in RPMI1640 plus 10% FBS, pen/strept and 2 mM L-glutamine. Cos-7 cells were grown in DMEM medium with […] glucose supplemented with 10% FCS, pen/strept and 2 mM L-glutamine. All cell lines were grown at 37 °C at 5% CO2. Cell media, media supplements, PBS-buffer, HEPES, antibiotic/antimycotic, pen/strept, non essential amino acid, L-glutamine, β-mercaptoethanol and sera were purchased from Gibco (Pailsey, UK). All fine chemicals were supplied by Merck (Darmstadt, Germany).
The chemotactic response of Namalwa cells (ATCC CRL-1432) to a gradient of stromal cell-derived factor 1α (SDF-1) was measured using a modified Boyden chamber chemotaxis system (ChemoTx; Neuroprobe). In this system, the upper chamber of each well is separated from the lower chamber containing the chemoattractant SDF-1 by a polycarbonate membrane (5µm pore size). A circular area of that membrane in the region that covers each lower well is enclosed by a hydrophobic mask to retain the cell suspension within this area. The system was prepared by loading the bottom wells with aliquots of […] chemotaxis medium (RPMI 1640 without Phenol red + 0.5% BSA) comprising either appropriate serial dilutions of peptides or no peptide at all in combination with SDF-1 (0.9 nM) or without the chemoattractant. The membrane was placed over the bottom wells, and aliquots of 50 µL of a suspension of Namalwa cells (3.6 x 10^6 cells/mL) in chemotaxis medium, premixed with chemotaxis medium comprising either appropriate serial dilutions of peptides or no peptide at all, was delivered onto each of the hydrophobically limited regions of the upper surface of the membrane. The cells were allowed to migrate into the bottom chamber for 5 h at 37 °C in 5% CO2. After this period, the membrane was removed and its topside was carefully wiped and washed with PBS to eliminate non-migrated cells. Migrated cells were transferred using a "funnel" adaptor to a receiving 96-well plate and the cell number was determined by using the CyQuant™ NF cell proliferation assay (Invitrogen) based on the measurement of cellular DNA content via fluorescent dye binding. Following the manufacturer's directions, 50 µL of CyQuant™ dye reagent/HBSS buffer (1/500 [v/v]) were added to each well of the above mentioned receiving 96-well plate. After incubation for 0.5 h at room temperature the plate was sealed and the fluorescence intensity of each sample was measured by using a Wallac 1420 VICTOR^2™ plate reader (PerkinElmer) with excitation at 485 nm and emission detection at 535 nm. Finally, the data were normalized by using the controls and IC50-values were determined using GraphPad Prism™ (GraphPad) by fitting a logarithmic curve to the averaged datapoints.

[5] = system: human red blood cells (hRBC); assay: Hemolysis; type: cell-based; settings: 100 µM, 20% hRBC, 1 h at 37°C
Experimental: The peptides were tested for their hemolytic activity against human red blood cells (hRBC). Fresh hRBC were washed four times with phosphate buffered saline (PBS) and centrifuged for 10 min at 3000 x g. Compounds (100 µM) were incubated with 20% hRBC (v/v) for 1 h at 37°C and shaking at 300 rpm. The final erythrocyte concentration was approximately 0.9 x 10^9 cells/mL. A value of 0% and 100% cell lysis, respectively, was determined by incubation of hRBC in the presence of PBS containing 0.001% acetic acid and 2.5% Triton X-100 in H2O respectively. The samples were centrifuged, the supernatants were 8-fold diluted in PBS buffer and the optical densities (OD) were measured at 540 nm. The 100% lyses value (OD540H2O) gave an OD540 of approximately 0.5-1.0. Percent hemolysis was calculated as follows: (OD540peptide/OD540H2O) x 100%. [formula]

T1 sequence (P61073 whole entry): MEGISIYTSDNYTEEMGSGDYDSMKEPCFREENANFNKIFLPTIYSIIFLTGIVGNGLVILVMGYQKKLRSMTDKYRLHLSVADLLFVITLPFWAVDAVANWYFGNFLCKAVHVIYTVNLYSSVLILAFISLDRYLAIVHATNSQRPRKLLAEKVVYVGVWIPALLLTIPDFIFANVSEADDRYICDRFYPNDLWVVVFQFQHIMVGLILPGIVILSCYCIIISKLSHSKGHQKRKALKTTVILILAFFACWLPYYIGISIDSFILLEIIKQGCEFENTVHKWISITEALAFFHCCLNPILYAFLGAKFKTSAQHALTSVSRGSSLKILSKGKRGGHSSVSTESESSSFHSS

SMILES | CLiv, human (allometric scaled) [1] | Plasma stability human pl. T1/2 [2] | Plasma stability mouse pl. T1/2 [3] | IC50 [4] | Hemolysis at 100 µM [5]
CC(C)NCCCC[C@@H]1NC(=O)[C@H](CCC(N)=O)NC(=O)[C@H](Cc2ccc(O)cc2)NC(=O)[C@@H]2CSSC[C@H](NC(=O)[C@H](C)NC(=O)[C@H](Cc3c[nH]cn3)NC(=O)[C@H](Cc3ccc(O)cc3)NC(=O)[C@@H]3CCCN3C(=O)[C@H]3CCCN3C1=O)C(=O)N[C@@H](CO)C(=O)N[C@@H](C)C(=O)N[C@H](Cc1ccc(O)cc1)C(=O)N[C@@H](CCN)C(=O)N[C@@H](CCCNC(=N)N)C(=O)N[C@@H](Cc1ccc(O)cc1)C(=O)N2 [Ex. 3, cyclo(-Tyr^1-His^2-Ala^3-Cys^4-Ser^5-Ala^6-^DTyr^7-Dab^8-Arg^9-Tyr^10-Cys^11-Tyr^12-Gln^13-Lys(iPr)^14-^DPro^15-Pro^16-), disulfide bond between Cys^4 and Cys^11] (cyclo(YHACSA[dY][Dab]RYCYQ[Lys(iPr)][dP]P); disulfide 4-11) | 2.35 mL/min/kg | 24 h | 24 h | 0.11 ± 0.01 nM | 1.0%
CC(C)NCCCC[C@@H]1NC(=O)[C@H](CCC(N)=O)NC(=O)[C@H](Cc2ccc(O)cc2)NC(=O)[C@@H]2CSSC[C@H](NC(=O)[C@H](Cc3ccc(O)cc3)NC(=O)[C@H](Cc3c[nH]cn3)NC(=O)[C@H](Cc3ccc(O)cc3)NC(=O)[C@@H]3CCCN3C(=O)[C@H]3CCCN3C1=O)C(=O)N[C@@H](CO)C(=O)N[C@@H](C)C(=O)N[C@H](Cc1ccc(O)cc1)C(=O)N[C@@H](CCCNC(C)C)C(=O)N[C@@H](CCCNC(=N)N)C(=O)N[C@@H](Cc1ccc(O)cc1)C(=O)N2 [Ex. 5, cyclo(-Tyr^1-His^2-Tyr^3-Cys^4-Ser^5-Ala^6-^DTyr^7-Orn(iPr)^8-Arg^9-Tyr^10-Cys^11-Tyr^12-Gln^13-Lys(iPr)^14-^DPro^15-Pro^16-), disulfide bond between Cys^4 and Cys^11] (cyclo(YHYCSA[dY][Orn(iPr)]RYCYQ[Lys(iPr)][dP]P); disulfide 4-11) | 1.77 mL/min/kg | 24 h | 24 h | 0.43 ± 0.24 nM | 3.5%
